# Literature values in patent US20150313829A1, “TOPICAL FORMULATIONS FOR THE PREVENTION AND TREATMENT OF ALOPECIA AND INHIBITION OF HAIR GROWTH” (UNIVERSIDADE FEDERAL DE MINAS GERAIS -UFMG, priority 2012, published 2015).
# Tested on: murine model of alopecia
# Conditions: WO 01/98325
substance,measurement,value
Asp1-Arg2-VAL3-Tyr4-Ile5-His6-Pro7 [Ang-(1-7)],hair growth,induces hair growth
same,number of mature follicles,increased the number of mature follicles
